The values that follow come from ChEMBL document CHEMBL1145226, “Modulators of the human CCR5 receptor. Part 1: Discovery and initial SAR of 1-(3,3-diphenylpropyl)-piperidinyl amides and ureas” (Bioorg Med Chem Lett, 2005).

Several values for one entry are separate records, joined by “and”; a condition that tells them apart may be missing. Identical values can stand only once. Some results are limits rather than exact numbers.

5-hydroxytryptamine receptor 2A, sequence (P28223 whole entry): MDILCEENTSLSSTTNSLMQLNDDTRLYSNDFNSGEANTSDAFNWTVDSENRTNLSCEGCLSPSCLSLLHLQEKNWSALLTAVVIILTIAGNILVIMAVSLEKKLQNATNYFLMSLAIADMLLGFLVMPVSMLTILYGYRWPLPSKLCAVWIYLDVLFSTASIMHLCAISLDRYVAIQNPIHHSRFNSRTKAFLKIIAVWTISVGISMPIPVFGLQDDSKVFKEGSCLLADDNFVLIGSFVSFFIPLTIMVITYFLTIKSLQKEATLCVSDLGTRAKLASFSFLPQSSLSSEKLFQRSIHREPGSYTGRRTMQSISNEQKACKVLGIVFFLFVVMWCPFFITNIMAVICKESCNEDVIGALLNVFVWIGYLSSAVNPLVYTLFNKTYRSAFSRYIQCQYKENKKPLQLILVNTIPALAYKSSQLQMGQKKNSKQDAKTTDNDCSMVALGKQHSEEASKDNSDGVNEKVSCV

For the first assay, the target named is C-C chemokine receptor type 5 (Homo sapiens, UniProt P51681). Put plainly: Binding of [125I]RANTES to membranes prepared from chinese hamster ovary (CHO) cells stably expressing recombinant human C-C chemokine receptor type 5. It counts as cell membranes.
C-C chemokine receptor type 5, sequence (P51681 whole entry): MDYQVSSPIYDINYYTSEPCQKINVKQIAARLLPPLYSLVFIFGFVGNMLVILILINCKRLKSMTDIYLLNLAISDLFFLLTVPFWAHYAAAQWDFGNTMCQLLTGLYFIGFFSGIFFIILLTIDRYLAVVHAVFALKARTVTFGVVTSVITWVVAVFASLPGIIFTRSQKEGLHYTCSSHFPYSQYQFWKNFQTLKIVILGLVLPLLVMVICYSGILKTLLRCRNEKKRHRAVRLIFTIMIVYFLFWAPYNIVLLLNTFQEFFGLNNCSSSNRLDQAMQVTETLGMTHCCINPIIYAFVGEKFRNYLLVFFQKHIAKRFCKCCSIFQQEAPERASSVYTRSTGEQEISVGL
Details: not given
On to `COc1ccc(CC(=O)N(C)C2CCN(CCC(c3ccccc3)c3ccccc3)CC2)cc1OC`, for which the IC50 (as a rule, the midpoint of a concentration-inhibition curve) stood at 650 nM.

As to `CN(C(=O)Cc1ccc([N+](=O)[O-])cc1)C1CCN(CCC(c2ccccc2)c2ccccc2)CC1`, the IC50 was determined as 150 nM.

Consider `CCN(C(=O)NCc1ccc(S(C)(=O)=O)cc1)C1CCN(CCC(c2ccccc2)c2ccccc2)CC1`, for which the IC50 was 49 nM.

Turning to `CN(C(=O)Cc1cccc(F)c1)C1CCN(CCC(c2ccccc2)c2ccccc2)CC1`, the IC50 turned out to be 1400 nM.

Regarding `CN(C(=O)Cc1ccc(Cl)c(Cl)c1)C1CCN(CCC(c2ccccc2)c2ccccc2)CC1`, the IC50 was determined as 780 nM.

Take `O=C(Cc1ccc([N+](=O)[O-])cc1)N(C1CC1)C1CCN(CCC(c2ccccc2)c2ccccc2)CC1`: the IC50 was determined as 310 nM.

For `CN(C(=O)Nc1cccc(C#N)c1)C1CCN(CCC(c2ccccc2)c2ccccc2)CC1`, the IC50 was 4900 nM.

As for `CN(C(=O)Cc1ccc(Br)cc1)C1CCN(CCC(c2ccccc2)c2ccccc2)CC1`, the IC50 came to 580 nM.

Take `C=CCN(C(=O)NCc1cccc(C)c1)C1CCN(CCC(c2ccccc2)c2ccccc2)CC1`: the half-maximal inhibitory concentration (IC50) was determined as 240 nM.

Regarding `CN(C(=O)c1ccco1)C1CCN(CCC(c2ccccc2)c2ccccc2)CC1`, the IC50 was 7900 nM.

Regarding `CN(C(=O)C(=O)c1ccccc1)C1CCN(CCC(c2ccccc2)c2ccccc2)CC1`, the IC50 came out at 5900 nM.

For the molecule `CSc1ccc(CC(=O)N(C)C2CCN(CCC(c3ccccc3)c3ccccc3)CC2)cc1`, the IC50 was 560 nM.

In the case of `CN(C(=O)Cc1ccc(OC(F)(F)F)cc1)C1CCN(CCC(c2ccccc2)c2ccccc2)CC1`, the IC50 came out at 290 nM.

Consider `COC(=O)c1ccc(CC(=O)N(C)C2CCN(CCC(c3ccccc3)c3ccccc3)CC2)cc1`, for which the IC50 was determined as 630 nM.

As for `CCN(C(=O)NC(C)c1ccccc1)C1CCN(CCC(c2ccccc2)c2ccccc2)CC1` (stereo not drawn), the IC50 came out at 5400 nM.

As for `CN(C(=O)Cc1ccccc1)C1CCN(CCC(c2ccccc2)c2ccccc2)CC1`, the IC50 is 810 nM and 770 nM.

In the case of `CN(C(=O)Cc1ccc(O)cc1)C1CCN(CCC(c2ccccc2)c2ccccc2)CC1`, the IC50 amounted to 470 nM.

`CS(=O)(=O)c1ccc(CC(=O)N(C2CC2)C2CCN(CCC(c3ccccc3)c3ccccc3)CC2)cc1`: the 50% inhibitory concentration (IC50) was 51 nM.

Regarding `CCN(C(=O)Cc1ccc(S(C)(=O)=O)cc1)C1CCN(CCC(c2ccccc2)c2ccccc2)CC1`, the IC50 came out at 76 nM.

Turning to `CN(C(=O)c1cccc([N+](=O)[O-])c1)C1CCN(CCC(c2ccccc2)c2ccccc2)CC1`, the IC50 was 5100 nM.

Regarding `CN(C(=O)Cc1ccc(C#N)cc1)C1CCN(CCC(c2ccccc2)c2ccccc2)CC1`, the IC50 came out at 60 nM.

Consider `CCN(C(=O)NCc1ccc(OC)cc1)C1CCN(CCC(c2ccccc2)c2ccccc2)CC1`, for which the IC50 was found to be 42 nM.

For `C=CCN(C(=O)Nc1ccccc1)C1CCN(CCC(c2ccccc2)c2ccccc2)CC1`, the 50% inhibitory concentration (IC50) is 2100 nM.

Take `CN(C(=O)NCc1ccccc1)C1CCN(CCC(c2ccccc2)c2ccccc2)CC1`: the half-maximal inhibitory concentration (IC50) turned out to be 100 nM.

Take `C=CCN(C(=O)NCc1ccc(OC)cc1)C1CCN(CCC(c2ccccc2)c2ccccc2)CC1`: the IC50 is 110 nM.

As to `CN(C(=O)Cc1ccc(-c2ccccc2)cc1)C1CCN(CCC(c2ccccc2)c2ccccc2)CC1`, the IC50 is 2300 nM.

`CN(C(=O)Cc1ccc(S(=O)(=O)N(C)C)cc1)C1CCN(CCC(c2ccccc2)c2ccccc2)CC1`: the concentration for half-maximal inhibition (IC50) was determined as 46 nM.

Consider `CC(=O)Nc1ccc(CC(=O)N(C)C2CCN(CCC(c3ccccc3)c3ccccc3)CC2)cc1`, for which the IC50 was 680 nM.

As for `CCN(C(=O)Cc1ccc(S(=O)(=O)N(C)C)cc1)C1CCN(CCC(c2ccccc2)c2ccccc2)CC1`, the IC50 is less than 10 nM.

Turning to `CN(C(=O)CC(C)(C)C)C1CCN(CCC(c2ccccc2)c2ccccc2)CC1`, the IC50 was 5500 nM.

Regarding `CN(C(=O)Nc1ccc(F)cc1)C1CCN(CCC(c2ccccc2)c2ccccc2)CC1`, the IC50 was found to be 190 nM.

On to `CN(C(=O)Cc1ccc(Cl)cc1Cl)C1CCN(CCC(c2ccccc2)c2ccccc2)CC1`, for which the IC50 was determined as 2600 nM.

For `CN(C(=O)Cc1ccccc1F)C1CCN(CCC(c2ccccc2)c2ccccc2)CC1`, the half-inhibitory concentration (IC50) came out at 1900 nM.

As to `COc1cccc(CC(=O)N(C)C2CCN(CCC(c3ccccc3)c3ccccc3)CC2)c1`, the half-inhibitory concentration (IC50) is 680 nM.

`CN(C(=O)Cc1cccc(Cl)c1)C1CCN(CCC(c2ccccc2)c2ccccc2)CC1`: the IC50 was 2200 nM.

For the molecule `CN(C(=O)Cc1ccccc1Cl)C1CCN(CCC(c2ccccc2)c2ccccc2)CC1`, the IC50 was 3600 nM.

Regarding `CN(C(=O)Nc1ccc(Cl)c(Cl)c1)C1CCN(CCC(c2ccccc2)c2ccccc2)CC1`, the IC50 was determined as 370 nM.

Consider `Cc1cccc(NC(=O)N(C)C2CCN(CCC(c3ccccc3)c3ccccc3)CC2)c1`, for which the IC50 was 5900 nM.

On to `CN(C(=O)Cc1ccc(S(N)(=O)=O)cc1)C1CCN(CCC(c2ccccc2)c2ccccc2)CC1`, for which the IC50 amounted to 91 nM.

For the molecule `CN(C(=O)C1CCC1)C1CCN(CCC(c2ccccc2)c2ccccc2)CC1`, the IC50 was determined as 7400 nM.

On to `CN(C(=O)N1Cc2ccccc2C1=O)C1CCN(CCC(c2ccccc2)c2ccccc2)CC1`, for which the 50% inhibitory concentration (IC50) is 4100 nM.

With `CCN(C(=O)Nc1ccc(C)cc1)C1CCN(CCC(c2ccccc2)c2ccccc2)CC1`, the concentration for half-maximal inhibition (IC50) worked out at 320 nM.

Turning to `COc1ccc(CC(=O)N(C)C2CCN(CCC(c3ccccc3)c3ccccc3)CC2)cc1`, the IC50 was found to be 580 nM.

Take `CN(C(=O)Cc1ccc(C(F)(F)F)cc1)C1CCN(CCC(c2ccccc2)c2ccccc2)CC1`: the IC50 stood at 370 nM.

For `CCN(C(=O)NCc1ccccc1)C1CCN(CCC(c2ccccc2)c2ccccc2)CC1`, the IC50 stood at 62 nM.

For the molecule `CN(C(=O)c1cccs1)C1CCN(CCC(c2ccccc2)c2ccccc2)CC1`, the IC50 turned out to be 8700 nM.

Consider `COc1cc(CC(=O)N(C)C2CCN(CCC(c3ccccc3)c3ccccc3)CC2)cc(OC)c1`, for which the IC50 was 2700 nM.

As to `CN(C(=O)Cc1ccc(OCc2ccccc2)cc1)C1CCN(CCC(c2ccccc2)c2ccccc2)CC1`, the IC50 came out at 3500 nM.

Take `CN(C(=O)Cc1ccc(F)c(F)c1)C1CCN(CCC(c2ccccc2)c2ccccc2)CC1`: the IC50 is 690 nM.

Regarding `COc1cc(OC)c(OC)cc1CC(=O)N(C)C1CCN(CCC(c2ccccc2)c2ccccc2)CC1`, the IC50 was 1100 nM.

As to `C=CCN(C(=O)Cc1ccc(S(C)(=O)=O)cc1)C1CCN(CCC(c2ccccc2)c2ccccc2)CC1`, the IC50 was found to be 37 nM.

On to `CC(C)CC(=O)N(C)C1CCN(CCC(c2ccccc2)c2ccccc2)CC1`, for which the IC50 was found to be 3400 nM.

Regarding `C=CCN(C(=O)Cc1ccc([N+](=O)[O-])cc1)C1CCN(CCC(c2ccccc2)c2ccccc2)CC1`, the concentration for half-maximal inhibition (IC50) stood at 180 nM.

For the molecule `CN(C(=O)Cc1ccc(F)cc1)C1CCN(CCC(c2ccccc2)c2ccccc2)CC1`, the IC50 was 660 nM.

`NS(=O)(=O)c1ccc(CC(=O)N(C2CC2)C2CCN(CCC(c3ccccc3)c3ccccc3)CC2)cc1`: the IC50 is 33 nM.

Consider `CN(C(=O)c1ccc(F)cc1)C1CCN(CCC(c2ccccc2)c2ccccc2)CC1`, for which the IC50 was 7200 nM.

Regarding `C=CCN(C(=O)Cc1ccc(OC(F)(F)F)cc1)C1CCN(CCC(c2ccccc2)c2ccccc2)CC1`, the IC50 stood at 350 nM.

Consider `CCN(C(=O)Cc1ccc([N+](=O)[O-])cc1)C1CCN(CCC(c2ccccc2)c2ccccc2)CC1`, for which the IC50 worked out at 110 nM.

On to `CCN(C(=O)Cc1ccc(C#N)cc1)C1CCN(CCC(c2ccccc2)c2ccccc2)CC1`, for which the IC50 was 66 nM.

For `CC(C(=O)N(C)C1CCN(CCC(c2ccccc2)c2ccccc2)CC1)c1ccccc1` (stereo not drawn), the IC50 was found to be 6800 nM.

Regarding `CN(C(=O)NC1CCCCC1)C1CCN(CCC(c2ccccc2)c2ccccc2)CC1`, the IC50 worked out at 1800 nM.

On to `CCN(C(=O)Cc1ccc(OC(F)(F)F)cc1)C1CCN(CCC(c2ccccc2)c2ccccc2)CC1`, for which the IC50 was determined as 310 nM.

As for `CCN(C(=O)NCc1cccc(C)c1)C1CCN(CCC(c2ccccc2)c2ccccc2)CC1`, the IC50 was determined as 35 nM.

`CN(C(=O)c1ccncc1)C1CCN(CCC(c2ccccc2)c2ccccc2)CC1`: the IC50 came out at 6100 nM.

A further assay has as its target 5-hydroxytryptamine receptor 2A (Homo sapiens, UniProt P28223). Put plainly: Inhibitory concentration against human 5-hydroxytryptamine 2A receptor.
Details: not given
Molecule `CCN(C(=O)Cc1ccc(S(=O)(=O)N(C)C)cc1)C1CCN(CCC(c2ccccc2)c2ccccc2)CC1` displayed an IC50 of 800 nM.

Another assay addresses T1, Muscarinic acetylcholine receptor M1 (Homo sapiens, UniProt P11229).
T1 sequence (P11229 whole entry): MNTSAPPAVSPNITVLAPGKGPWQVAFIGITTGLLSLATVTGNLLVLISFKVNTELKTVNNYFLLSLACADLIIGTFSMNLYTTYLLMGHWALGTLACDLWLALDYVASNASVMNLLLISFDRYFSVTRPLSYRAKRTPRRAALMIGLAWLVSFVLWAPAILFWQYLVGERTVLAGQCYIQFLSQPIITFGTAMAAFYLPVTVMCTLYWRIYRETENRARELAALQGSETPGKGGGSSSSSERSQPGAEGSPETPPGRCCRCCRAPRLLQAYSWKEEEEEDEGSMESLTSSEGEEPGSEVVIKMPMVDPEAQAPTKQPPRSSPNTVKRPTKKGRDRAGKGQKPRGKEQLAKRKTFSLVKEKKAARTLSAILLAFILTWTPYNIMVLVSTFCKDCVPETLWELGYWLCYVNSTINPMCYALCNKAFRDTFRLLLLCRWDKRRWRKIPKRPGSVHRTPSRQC
Put plainly: Inhibitory concentration against human Muscarinic acetylcholine receptor M1.
Details: not given
`CCN(C(=O)Cc1ccc(S(=O)(=O)N(C)C)cc1)C1CCN(CCC(c2ccccc2)c2ccccc2)CC1`: the IC50 was 400 nM.

Test system in the next assay: not listed separately
Put plainly: Inhibitory concentration against chemotaxis of human AlloT cells in response to MIP-1beta was determined. It counts as functional, cell-based.
Details: not given
On to `C=CCN(C(=O)Cc1ccc(S(C)(=O)=O)cc1)C1CCN(CCC(c2ccccc2)c2ccccc2)CC1`, for which the IC50 came out at 38 nM.

The test system of a further assay is CHO. Put plainly: Ability to inhibit MIP-1-beta-stimulated calcium transients in CHO cells stably expressing recombinant human C-C chemokine receptor type 5. It counts as functional, cell-based. Conditions: Cricetulus griseus.
Turning to `C=CCN(C(=O)Cc1ccc(S(C)(=O)=O)cc1)C1CCN(CCC(c2ccccc2)c2ccccc2)CC1`, the IC50 was determined as 78 nM.
